Patent publication US9096524B2, “Anthelmintic agents and their use” (Intervet International B.V., priority 2009, dated 2015)
Read-outs that look alike come from different tables or passages of the source.

Assays:
Haemonchus contortus [1] = experiment: Efficacy against Haemonchus contortus in jirds; assay type: in vivo, jirds (Meriones unguiculatus); settings: 72 h, read-out: % Reduction in H.
Method: Anthelmintic effects of compounds of this invention were tested in vivo using Haemonchus contuortus in jirds (Meriones unguiculatus). The jirds were orally infected with approximately 750-3,000 third-stage larvae of Haemonchus contortus. Ten days after infection, the jirds in the treatment groups were treated once orally or subcutaneously at a dose of 2, 10, and/or 50 mg per kg bodyweight. Three days after treatment, the jirds were necropsied, and the larvae burden in the stomach is determined. The efficacy is defined as the reduction of the mean larvae count in the jirds of the treatment groups in comparison to the infected jirds in the untreated negative control group.

[2] = system: Haemonchus contortus larval stage 4, isolate with a resistance to benzimidazoles and ivermectin and anthelmintic-sensitive isolate; experiment: Resistance-breaking activity against Haemonchus contortus L4 in vitro, resistant isolate compared with sensitive isolate; assay type: cell-based; settings: isolate resistant to benzimidazoles and ivermectin vs sensitive isolate
Method: Anthelmintic resistance-breaking effects of compounds of this invention were tested in vitro using larval stage 4 (“L4”) of the parasitic nematode species Haemonchus contortus (Barber's pole worm in ruminants). One isolate of Haemonchus contortus with a resistance to benzimidazoles and ivermectin was tested in comparison to the anthelmintic-sensitive isolate of Haemonchus contortus. When conducting these experiments, various concentrations of the compounds were incubated in 96-well microtiter plates. Parasites were then distributed at 20 larvae per well. The anthelmintic effects were classified by microscopic examination. The microscopic examination included assessing mortality, damage, motility, progression of development, and neutral red uptake by the larvae in comparison to a DMSO-control and standard anthelmintics. The anthelmintic effects were defined by the minimum effective concentration (“MEC”).

[3] = system: A. galli (intestinal roundworm of chicken) larval stage 3; O. dentatum (nodular worm of swine) larval stages 3 and 4; experiment: Activity against Ascaridia galli and Oesophagostomum dentatum larvae in vitro (minimum effective concentration); assay type: cell-based
Haemonchus contortus [4] = experiment: Efficacy against Haemonchus contortus in sheep; assay type: in vivo; settings: oral, single treatment, worm burden in abomasum 7 days after treatment
Method: Anthelmintic effects of compounds of this invention were tested in vivo using Haemonchus contortus in sheep. The sheep were orally infected with approximately 5,000 third-stage larvae of Haemonchus contortus. Thirty-five days after infection, the sheep in the treatment groups were treated once orally at a dose of 2, 5, 10, and/or 50 mg per kg bodyweight. Seven days after treatment, the sheep were necropsied, and the worm burden in the abomasum was determined. The efficacy was defined as the reduction of the mean worm count in the infected sheep of the treatment groups in comparison to the infected sheep in the untreated negative control group.

[5] = read-out: MEC (minimum effective concentration) against one or more of the tested nematodes, in vitro, one or more of A. galli L3, O. dentatum L3, L4, threshold 1 μM
[6] = read-out: MEC (minimum effective concentration) against one or more of the tested nematodes, in vitro, one or more of A. galli L3, O. dentatum L3, L4, threshold 7 μM
[7] = read-out: MEC (minimum effective concentration) against two or more of the tested nematodes, in vitro, two or more of A. galli L3, O. dentatum L3, L4, threshold 1 μM

SMILES | inhibition in vivo at 50 mg/kg (Haemonchus contortus [1]; po) | inhibition in vivo at 50 mg/kg (Haemonchus contortus [1]; sc) | activity (MEC) against the resistant versus the sensitive isolate of Haemonchus contortus [2] | minimal effective concentration [3, 5] | minimal effective concentration [3, 6] | minimal effective concentration [3, 7] | inhibition in vivo at 10 mg/kg (Haemonchus contortus [1]; po) | inhibition in vivo at 10 mg/kg (Haemonchus contortus [1]; sc) | % Reduction in H. (Haemonchus contortus [4]; 10 mg/kg) | % Reduction in H. (Haemonchus contortus [4]; 50 mg/kg)
O=C(CCN1CCC(c2ccc(Oc3ccccc3)cc2)CC1)N1CCC(Oc2ccc([N+](=O)[O-])c(C(F)(F)F)c2)CC1 [Example 45, 1-[4-(4-nitro-3-trifluoromethyl-phenoxy)-piperidin-1-yl]-3-[4-(4-phenoxy-phenyl)-piperidin-1-yl]-propan-1-one] | 94% | 94% | the same activity against the resistant and the sensitive isolate | – | – | – | – | – | – | –
O=C(CCCN1CCN(c2ccc(C(F)(F)F)cc2)CC1)N1CCC(Nc2ccc(SC(F)(F)F)cc2)CC1 [Example 48, 4-[4-(4-trifluoromethyl-phenyl)-piperazin-1-yl]-1-[4-(4-trifluoromethylsulfanyl-phenylamino)-piperidin-1-yl]-butan-1-one] | – | – | the same activity against the resistant and the sensitive isolate | < 1 µM | < 7 µM | < 1 µM | 99% | 92% | – | –
CC(CN1CCN(c2ccc(C(F)(F)F)cc2)CC1)C(=O)N1CCC(Nc2ccc([N+](=O)[O-])c(C(F)(F)F)c2)CC1 (stereo not drawn) [Example 64, 2-methyl-1-[4-(4-nitro-3-trifluoromethyl-phenylamino)-piperidin-1-yl]-3-[4-(4-trifluoromethyl-phenyl)-piperazin-1-yl]-propan-1-one] | 100% | 100% | the same activity against the resistant and the sensitive isolate | < 1 µM | < 7 µM | < 1 µM | – | – | 75% | –
N#Cc1ccc(NC2CCN(C(=O)CCN3CCN(c4ccc(Cl)cc4)CC3)CC2)cc1C(F)(F)F [Example 325] | 92% | 97% | the same activity against the resistant and the sensitive isolate | – | – | < 1 µM | – | – | – | 96%
CCCc1ccc(C2CCN(CCC(=O)N3CCC(Oc4ccc([N+](=O)[O-])c(OCC)c4)CC3)CC2)cc1 [Example 579] | 96% | 96% | – | – | – | < 1 µM | – | – | – | –
